Patent publication US12384753B2, “17-beta-hydroxysteroid dehydrogenase type 13 inhibitors and methods of use thereof” (Enanta Pharmaceuticals, Inc., priority 2021, dated 2025)

Target: Recombinant human HSD17B13 (Homo sapiens (Human), UniProt Q7Z5P4)
Assay: HSD17B13 rapid-fire mass spectrometry assay (RF/MS assay)
Type: biochemical
Details: inhibition of HSD17B13; LTB4 10 μM, NAD+ 0.5 mM, RT 3 h; IC50 ranges A-E
Summary of the method: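 Sf9-expressed human HSD17B13 (80 nM) with 10 μM LTB4 and 0.5 mM NAD+, incubated with compound (0–100 μM) for 3 h at RT in Tris pH 7.5/BSA/Tween-20. After formic acid quench, LTB4 conversion to 12-oxo-LTB4 measured by RapidFire MS/MS. IC50 from normalised residual activity, duplicates.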

Chain of Recombinant human HSD17B13 (Q7Z5P4 20-300): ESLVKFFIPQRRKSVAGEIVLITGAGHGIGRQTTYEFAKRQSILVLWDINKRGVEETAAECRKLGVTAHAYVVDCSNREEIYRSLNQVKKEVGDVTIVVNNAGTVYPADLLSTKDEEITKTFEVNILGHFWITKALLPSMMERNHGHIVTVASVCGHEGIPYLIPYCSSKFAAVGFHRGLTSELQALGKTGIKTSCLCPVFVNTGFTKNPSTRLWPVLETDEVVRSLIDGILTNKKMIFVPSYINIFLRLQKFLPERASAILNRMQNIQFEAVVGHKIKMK

SMILES | IC50 [nM]
COc1cc(C(=O)O)c(F)cc1NS(=O)(=O)c1csc(-c2ccc(C3CCC(C)(C)CC3)c(OC)c2)n1 [Example 525] | 500 to 1000
COc1cc(C(=O)O)c(F)cc1NS(=O)(=O)c1csc(-c2ccc(C3=CCC(C)(C)CC3)c(C)c2)n1 [Example 527] | 100 to 500
COc1cc(C(=O)O)c(F)cc1NS(=O)(=O)c1csc(-c2ccc(C3=CCC(C)(C)CC3)c(CO)c2)n1 [Example 529] | 100 to 500
COc1cc(C(=O)O)c(F)cc1NS(=O)(=O)c1csc(-c2ccc(-c3ccccc3O)cc2)n1 [Example 531] | 100 to 500
COc1cc(C(=O)O)c(F)cc1NS(=O)(=O)c1csc(-c2ccc(C3CC4CCC(C4)C3)cc2)n1 (stereo not shown) [Example 534] | 100 to 500
COc1cc(C(=O)O)c(F)cc1NS(=O)(=O)c1csc(-c2ccc(C3CC4C(C3)C4(C)C)cc2)n1 (stereo not shown) [Example 535] | < 100
COc1cc(C(=O)O)c(F)cc1NS(=O)(=O)c1csc(-c2ccc(C3=CCC(C)(C)CC3)cc2OC)n1 [Example 536] | < 100
COc1cc(C(=O)O)c(F)cc1NS(=O)(=O)c1csc(-c2ccc(C3=CCC(C)(C)CC3)c(OC(F)(F)F)c2)n1 [Example 537] | < 100
COc1cc(C(=O)O)c(F)cc1NS(=O)(=O)c1csc(-c2ccc(C3=CCC(C)(C)CC3)c3[nH]ncc23)n1 [Example 538] | 100 to 500
COc1cc(C(=O)O)c(F)cc1NS(=O)(=O)c1csc(-c2ccc(C3CCC(C)(C)CC3)c(OC(F)(F)F)c2)n1 [Example 540] | 100 to 500
COc1cc(C(=O)O)c(F)cc1NS(=O)(=O)c1csc(-c2ccc(C3CCC(C)(C)CC3)cc2OC(F)(F)F)n1 [Example 543] | < 100
COc1cc(C(=O)O)c(F)cc1NS(=O)(=O)c1csc(-c2ccc(C3=CCC(C)(C)CC3)cc2C2CC2)n1 [Example 544] | 100 to 500
COc1cc(C(=O)O)c(F)cc1NS(=O)(=O)c1csc(-c2ccc(C3CCC(C)(C)CC3)nc2)n1 [Example 553] | 100 to 500
COc1cc(C(=O)O)c(F)cc1NS(=O)(=O)c1csc(-c2cnc(C3CCC(C)(C)CC3)c(F)c2)n1 [Example 554] | 100 to 500
COc1cc(C(=O)O)c(F)cc1NS(=O)(=O)c1csc(-c2ccc(C3=CCC(C)(C)CC3)cc2-c2ccc(F)cc2)n1 [Example 555] | 500 to 1000
COc1cc(C(=O)O)c(F)cc1NS(=O)(=O)c1csc(-c2ccc(C3=CCC(C)(C)CC3)cc2C)n1 [Example 556] | < 100
COc1cc(C(=O)O)c(F)cc1NS(=O)(=O)c1csc(-c2ccc(C3CCC(C)(C)CC3)cc2C)n1 [Example 559] | < 100
COc1cc(C(=O)O)c(F)cc1NS(=O)(=O)c1csc(-c2ccc(C(F)(F)F)nc2C2=CCC(C)(C)CC2)n1 [Example 561] | 1000 to 100000

SMILES | IC50 [nM]
CCc1cc(C2=CCC(C)(C)CC2)ccc1-c1nc(S(=O)(=O)Nc2cc(F)c(C(=O)O)cc2OC)cs1 [Example 563] | < 100
COc1cc(C(=O)O)c(F)cc1NS(=O)(=O)c1csc(-c2ccc(C3=CCC(C)(C)CC3)c(OC(C)C)c2F)n1 [Example 564] | 100 to 500
COc1cc(C(=O)O)c(F)cc1NS(=O)(=O)c1csc(-c2ccc(C3=CCC(C)(C)CC3)cn2)n1 [Example 565] | 100 to 500
COc1cc(C(=O)O)c(F)cc1NS(=O)(=O)c1csc(-c2ccc(C3CCC(C)(C)CC3)c(OC(C)C)c2F)n1 [Example 567] | < 100
CCOc1c(C2=CCC(C)(C)CC2)ccc(-c2nc(S(=O)(=O)Nc3cc(F)c(C(=O)O)cc3OC)cs2)c1F [Example 568] | < 100
COc1cc(C(=O)O)c(F)cc1NS(=O)(=O)c1csc(-c2ccc(C3=CCC(C)(C)CC3)c(C)c2F)n1 [Example 569] | < 100
CCOc1c(C2CCC(C)(C)CC2)ccc(-c2nc(S(=O)(=O)Nc3cc(F)c(C(=O)O)cc3OC)cs2)c1F [Example 570] | < 100
CCc1cc(C2CCC(C)(C)CC2)ccc1-c1nc(S(=O)(=O)Nc2cc(F)c(C(=O)O)cc2OC)cs1 [Example 572] | < 100
COc1cc(C(=O)O)c(F)cc1NS(=O)(=O)c1csc(-c2ccc(C3CCC(C)(C)CC3)cn2)n1 [Example 573] | 100 to 500
CC[C@H]1CC[C@H](c2ccc(-c3nc(S(=O)(=O)Nc4cc5c(cc4OC)C(=O)NC5)cs3)cc2)CC1 [Example 574] | 1000 to 100000
CCCOc1c(C2=CCC(C)(C)CC2)ccc(-c2nc(S(=O)(=O)Nc3cc(F)c(C(=O)O)cc3OC)cs2)c1F [Example 576] | 100 to 500
COCCOc1c(C2=CCC(C)(C)CC2)ccc(-c2nc(S(=O)(=O)Nc3cc(F)c(C(=O)O)cc3OC)cs2)c1F [Example 577] | 100 to 500
CCCCOc1c(C2CCC(C)(C)CC2)ccc(-c2nc(S(=O)(=O)Nc3cc(F)c(C(=O)O)cc3OC)cs2)c1F [Example 581] | 100 to 500
COc1cc(C(=O)O)c(F)cc1NS(=O)(=O)c1csc(-c2ccc(C3=CCC(C)(C)CC3)c(F)c2C(F)F)n1 [Example 582] | < 100
COc1cc(C(=O)O)c(F)cc1NS(=O)(=O)c1csc(-c2ccc(C3CCC(C)(C)CC3)c(F)c2C(F)F)n1 [Example 583] | < 100
COc1cc(C(=O)O)c(F)cc1NS(=O)(=O)c1csc(-c2ccc(C3=CCC(C(C)C)CC3)c(OC(C)C)c2F)n1 (stereo not shown) [Example 584] | < 100
COc1cc(C(=O)O)c(F)cc1NS(=O)(=O)c1csc(-c2ccc([C@H]3CC[C@@H](C(C)C)CC3)c(OC(C)C)c2F)n1 [Example 586] | 100 to 500
COc1cc(C(=O)O)c(F)cc1NS(=O)(=O)c1csc(-c2ccc([C@H]3CC[C@H](C(C)C)CC3)c(OC(C)C)c2F)n1 [Example 587] | < 100

Next, values leading:

IC50 [nM] | SMILES
< 100 | COc1cc(C(=O)O)c(F)cc1NS(=O)(=O)c1csc(-c2ccc(C3CCC(C)(C)CC3)cc2C(F)(F)F)n1 [Example 524, 4-((2-(4-(4,4-dimethylcyclohexyl)-2-(trifluoromethyl)phenyl)thiazole)-4-sulfonamido)-2-fluoro-5-methoxybenzoic acid]
100 to 500 | COc1cc(C(=O)O)c(F)cc1NS(=O)(=O)c1csc(-c2ccc(-c3cccnc3)cc2)n1 [Example 526]
100 to 500 | COc1cc(C(=O)O)c(F)cc1NS(=O)(=O)c1csc(-c2ccc(C3CCC(C)(C)CC3)c(C)c2)n1 [Example 528]
500 to 1000 | COc1cc(C(=O)O)c(F)cc1NS(=O)(=O)c1csc(-c2ccc(C3=CCC(C)(C)CC3)c(C(N)=O)c2)n1 [Example 530]
500 to 1000 | COc1cc(C(=O)O)c(F)cc1NS(=O)(=O)c1csc(-c2ccc([C@]3(CO)CC[C@@H](C(F)(F)F)CC3)cc2)n1 [Example 532]
500 to 1000 | COc1cc(C(=O)O)c(F)cc1NS(=O)(=O)c1csc(-c2ccc(C3CCC(C)(C)CC3)c(C(N)=O)c2)n1 [Example 533]
< 100 | COc1cc(C(=O)O)c(F)cc1NS(=O)(=O)c1csc(-c2ccc(C3CCC(C)(C)CC3)cc2OC)n1 [Example 539]
< 100 | COc1cc(C(=O)O)c(F)cc1NS(=O)(=O)c1csc(-c2ccc(C3CCC(C)(C)CC3)c3[nH]ncc23)n1 [Example 541]
< 100 | COc1cc(C(=O)O)c(F)cc1NS(=O)(=O)c1csc(-c2ccc(C3=CCC(C)(C)CC3)cc2OC(F)(F)F)n1 [Example 542]
< 100 | COc1cc(C(=O)O)c(F)cc1NS(=O)(=O)c1csc(-c2ccc(C3=CCC(C)(C)CC3)c(OC)c2F)n1 [Example 545]
< 100 | COc1cc(C(=O)O)c(F)cc1NS(=O)(=O)c1csc(-c2ccc(C3=CCC(C)(C)CC3)c(F)c2OC)n1 [Example 546]
100 to 500 | COc1cc(C(=O)O)c(F)cc1NS(=O)(=O)c1csc(-c2ccc(C3CCC(C)(C)CC3)cc2C2CC2)n1 [Example 547]
< 100 | COc1cc(C(=O)O)c(F)cc1NS(=O)(=O)c1csc(-c2ccc(C3CCC(C)(C)CC3)c(OC)c2F)n1 [Example 548]
100 to 500 | COc1cc(C(=O)O)c(F)cc1NS(=O)(=O)c1csc(-c2ccc(C3CCC(C)(C)CC3)c(F)c2OC)n1 [Example 549]
100 to 500 | COc1cc(C(=O)O)c(F)cc1NS(=O)(=O)c1csc(-c2ccc(C3CC4CCC3CC4)cc2)n1 (stereo not shown) [Example 550]
100 to 500 | COc1cc(C(=O)O)c(F)cc1NS(=O)(=O)c1csc(-c2ccc(C3=CCC(C)(C)CC3)nc2)n1 [Example 551]
100 to 500 | COc1cc(C(=O)O)c(F)cc1NS(=O)(=O)c1csc(-c2cnc(C3=CCC(C)(C)CC3)c(F)c2)n1 [Example 552]
100 to 500 | COc1cc(C(=O)O)c(F)cc1NS(=O)(=O)c1csc(-c2ccc(C3=CCC(C)(C)CC3)cc2C(C)C)n1 [Example 557]
100 to 500 | COc1cc(C(=O)O)c(F)cc1NS(=O)(=O)c1csc(-c2ccc(C3CCC(C)(C)CC3)cc2-c2ccc(F)cc2)n1 [Example 558]
100 to 500 | COc1cc(C(=O)O)c(F)cc1NS(=O)(=O)c1csc(-c2ccc(C3CCC(C)(C)CC3)cc2C(C)C)n1 [Example 560]
100 to 500 | COc1cc(C(=O)O)c(F)cc1NS(=O)(=O)c1csc(-c2ccc(C3=CCC(C)(C)CC3)c(F)c2C)n1 [Example 562]
< 100 | COc1cc(C(=O)O)c(F)cc1NS(=O)(=O)c1csc(-c2ccc(C3CCC(C)(C)CC3)c(F)c2C)n1 [Example 566]
< 100 | COc1cc(C(=O)O)c(F)cc1NS(=O)(=O)c1csc(-c2ccc(C3CCC(C)(C)CC3)c(C)c2F)n1 [Example 571]
1000 to 100000 | CC[C@H]1CC[C@H](c2ccc(-c3nc(S(=O)(=O)Nc4cc5nc[nH]c(=O)c5cc4OC)cs3)cc2)CC1 [Example 575]
100 to 500 | CCCCOc1c(C2=CCC(C)(C)CC2)ccc(-c2nc(S(=O)(=O)Nc3cc(F)c(C(=O)O)cc3OC)cs2)c1F [Example 578]
100 to 500 | CCCOc1c(C2CCC(C)(C)CC2)ccc(-c2nc(S(=O)(=O)Nc3cc(F)c(C(=O)O)cc3OC)cs2)c1F [Example 579]
100 to 500 | COCCOc1c(C2CCC(C)(C)CC2)ccc(-c2nc(S(=O)(=O)Nc3cc(F)c(C(=O)O)cc3OC)cs2)c1F [Example 580]
100 to 500 | CCCCOc1c(C2=CCC(C(C)C)CC2)ccc(-c2nc(S(=O)(=O)Nc3cc(F)c(C(=O)O)cc3OC)cs2)c1F (stereo not shown) [Example 585]
